According to patent publication US20170266204A1 (ARNO THERAPEUTICS, INC., priority 2016, published 2017):

How the values were obtained:
in vitro = conditions: for Vmax for metabolism: Table 1 Vmax 1; for P450 enzyme catalyzing the metabolism: microsomes
Experimental: Mohutsky M, Wrighton S, Ring B. In vitro metabolism: subcellular fractions. In: Pearson P, Wienkers L, editors. Handbook of drug metabolism. New York: Informa Healthcare; 2009. pp. 445-464. […] The incubation was conducted at various time points 0-60 min at 37° C. At the end of incubation, the reactions were quenched, processed, and analyzed by LC-MS/MS.

[1] = format: in vitro ADME, human
Description: In: Pearson P, Wienkers L, editors. Handbook of drug metabolism. New York: Informa Healthcare; 2009. pp. 445-464.

[2] = Metabolite profile by LC-MS in pooled urine of chimeric mice with humanized liver after repeated oral onapristone; format: in vivo; conditions: onapristone 30 mg/kg/day, D11
Experimental: Metabolites were identified using liquid chromatography-mass spectrometry (LC-MS) and mass spectroscopy on pooled plasma, urine, and liver samples. Twenty-seven metabolites were identified in urine samples across dose and sampling time (e.g., 0-24 hours of dosing for each time point).
Mice with humanized livers were generated as described by Meuleman et al., Hepatology 2005, 41 (4):847-856. This humanized liver model is routinely used to assess the metabolism and toxicities of drugs. Kamimura H, Nakada N, Suzuki K, et al. Assessment of chimeric mice with humanized liver as a tool for predicting circulating human metabolites. Drug Metab Pharmacokinet 2010;25(3):223-235. Two weeks following birth, mice were transplanted with primary hepatocytes isolated from the liver of a donor (purchased from BD Genetest). All animals were housed and kept under standard animal protocols. Animals also were observed during the experiment for signs of illness, abnormal behavior and appearance, and any sign of toxicity, or mortality. Animals were treated orally by gavage with 0, 10, and 30 mg/kg of drug once a day up to 31 days. At the end of treatments, blood samples, urine, and liver were collected and processed for LC-MS/MS metabolite identification and profiling. […]

[3] = target: T1, progesterone receptor (PR) (Homo sapiens, UniProt P06401); assay: PRE-luciferase reporter assay in 293T and WMPY cells transfected with PR; format: cell-based; conditions: 100 nM
T1 construct: expressed in transfected cells; host or cells: 293T (human embryonic kidney cells) and WMPY (prostatic stromal cell line)
T1 sequence (P06401 1-933): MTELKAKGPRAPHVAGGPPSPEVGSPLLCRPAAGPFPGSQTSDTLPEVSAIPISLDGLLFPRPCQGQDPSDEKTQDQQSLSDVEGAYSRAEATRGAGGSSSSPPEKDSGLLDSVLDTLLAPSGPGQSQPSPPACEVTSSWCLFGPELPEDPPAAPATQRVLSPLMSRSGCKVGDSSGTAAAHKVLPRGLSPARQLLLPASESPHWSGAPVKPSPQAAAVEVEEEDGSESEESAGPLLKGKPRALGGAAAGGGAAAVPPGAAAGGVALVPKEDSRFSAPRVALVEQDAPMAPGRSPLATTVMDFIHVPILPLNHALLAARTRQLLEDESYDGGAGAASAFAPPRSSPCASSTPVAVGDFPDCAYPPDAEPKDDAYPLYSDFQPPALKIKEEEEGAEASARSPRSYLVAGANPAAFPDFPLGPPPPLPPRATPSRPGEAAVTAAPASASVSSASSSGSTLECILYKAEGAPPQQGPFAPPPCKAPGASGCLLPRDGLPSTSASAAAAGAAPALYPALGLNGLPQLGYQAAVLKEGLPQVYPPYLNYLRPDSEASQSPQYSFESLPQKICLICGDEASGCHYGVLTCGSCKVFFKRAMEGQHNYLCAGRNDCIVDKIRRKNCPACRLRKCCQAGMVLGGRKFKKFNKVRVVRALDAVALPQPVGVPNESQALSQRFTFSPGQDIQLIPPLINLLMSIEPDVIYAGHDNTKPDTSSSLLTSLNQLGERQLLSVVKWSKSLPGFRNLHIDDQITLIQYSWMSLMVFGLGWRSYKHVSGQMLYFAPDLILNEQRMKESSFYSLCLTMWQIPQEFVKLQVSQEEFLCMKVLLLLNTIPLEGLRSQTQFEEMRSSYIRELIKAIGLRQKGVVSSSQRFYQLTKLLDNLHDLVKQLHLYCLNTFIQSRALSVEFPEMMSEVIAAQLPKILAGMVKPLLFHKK
Experimental: 293T and WMPY cells were transfected with progesterone receptor (PR) and PRE-luciferase reporter. […] Experiments were repeated in triplicate. […] Because of the metabolic stability of M1 compared to ONA, a blood circulation of 100 nM M1 can be achieved after dosing M1 at 1 mg.

[4] = Concentration in blood circulation after dosing

P450 enzyme catalyzing the metabolism (in vitro; both, human)	Km (in vitro; human, Km 1)	Km (in vitro; human, Km 2)	Km (in vitro; male, human, Km 1)	Km (in vitro; male, human, Km 2)	concentration that can be achieved in blood circulation ([4]; after dosing M1 at 1 mg, inferred from metabolic stability of M1)	concentration achieved in blood circulation ([4]; after dosing onapristone at 10 mg QD)	SMILES	Vmax 1 (in vitro; female human liver microsomes)	Vmax 2 (in vitro; female human liver microsomes)	Vmax for metabolism (in vitro; females)	Vmax 1 (in vitro; male human liver microsomes)	Vmax 2 (in vitro; male human liver microsomes)	Vmax for metabolism (in vitro; males)	P450 enzyme catalyzing the metabolism (in vitro)	number of metabolites formed in vitro [1]	metabolite detected by LC-MS in urine [2]	inhibition of PR transcriptional activity [3]
							CN(C)c1ccc([C@H]2C[C@]3(C)[C@@H](CC[C@]3(O)CCCO)[C@@H]3CCC4=CC(=O)CCC4=C32)cc1 [onapristone, Onapristone, reference compound]	1517 pmol/min/mg	8715 pmol/min/mg	1517 pmol/min/mg microsomal protein	1292 pmol/min/mg	7213 pmol/min/mg	1292 pmol/min/mg microsomal protein	CYP3A	nine	Ls	fully inhibit
CYP3A and CYP2C	0.75 µM	175 µM	0.96 µM	129 µM	100 nM	10 nM	CNc1ccc([C@H]2C[C@]3(C)[C@@H](CC[C@]3(O)CCCO)[C@@H]3CCC4=CC(=O)CCC4=C32)cc1 [Metabolite M1, (8S, 11R,13R,14S,17S)-17-hydroxy-17-(3-hydroxypropyl)-13-methyl-11-(4-(methylamino)phenyl)-6,7,8,11,12,13,14,15,16,17-decahydro-1H-cyclopenta[a]phenanthren-3(2H)-one]	106 pmol/min/mg	738 pmol/min/mg	106 pmol/min/mg microsomal protein	72 pmol/min/mg	748 pmol/min/mg	72 pmol/min/mg microsomal protein				fully inhibit
